For 17 compounds, GI50 and TGI results are on record in PubChem BioAssay (NCI).

What all share (assay): inhibition of tumour cell growth, NCI panel, 48 h
In assay [1] the test system is EKVX NSCLC.
The subject of assay [2] is HCC-2998 colon.
The test system of assay [3] is HT29 colon.
Assay [4] deals with M14 melanoma.
Assay [5] concerns NCI/ADR-RES ovarian.
For assay [6], the system named is OVCAR-8 ovarian.
For assay [7], the system named is SF-268 CNS.
Assay [8] has as its system SF-295 CNS.
Assay [9] relates to SK-MEL-2 melanoma.
The test system of assay [10] is TK-10 renal.

Where “and” joins values, the source holds several entries; their conditions need not be identical. Equal entries are not always repeated.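 Interpolation was linear, between the two tested concentrations surrounding the appropriate level; five concentrations were tested over 48 hours in 96-well plates. GI50 is the concentration that inhibits growth by half. The concentration for full growth arrest is given as TGI.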 A value given as a limit tells only on which side of the number the result lay.

As to `CCOC(=O)Cc1c[nH]c(=S)[nH]c1=O`, the GI50 in assay [1], in [2], in assay [3], in [4], in assay [5] and in [6] was more than 100 µM throughout. Moreover, the GI50 in [7], in assay [8], in assay [9] and in assay [10] was more than 100 µM in each case. In addition, the TGI in assay [1], in assay [2], in [3], in [4], in assay [5] and in assay [6] was more than 100 µM throughout. Further, the TGI in [7], in assay [8], in assay [9] and in assay [10] was more than 100 µM throughout.
On to `CCN=C1C=CC(=C(c2ccc(N(C)C)cc2)c2ccc(N(C)C)cc2)c2ccccc21`, for which the GI50 was 0.0445 µM in assay [1]; 0.137 µM in [2]; 0.0326 µM in assay [3]; 0.107 µM in assay [4]; 0.636 µM in assay [5]; 0.0816 µM in assay [6]. In addition, the GI50 in [7] is 0.114 µM; in assay [8], 0.122 µM; in [9] it was 0.101 µM; in assay [10] it was 0.0913 µM. The TGI was determined as 0.488 µM in assay [1]; 0.696 µM in assay [2]; 0.207 µM in assay [3]; 0.372 µM in [4]; 3.94 µM in [5]; 1.7 µM in [6]. For the same compound, the TGI in assay [7] is 0.981 µM; in assay [8] it was 0.423 µM; in assay [9] it was 0.472 µM; in assay [10], 1.31 µM.
In the case of `CC1=CC(=O)c2c(O)cccc2C1=O`, the TGI in assay [1] stood at 3.08 µM; in assay [2] it was 4.12 µM; in [3], 3.46 µM; in assay [4] it was 3.3 µM; in assay [5], 3.16 µM; in assay [6], 3.2 µM. The TGI in assay [7] turned out to be 3.96 µM; in assay [8], 23.9 µM; in [9], 3.72 µM; in assay [10] it was 3.14 µM.
With `c1ccc2nc(Cn3c[n+](Cc4ccc5ccccc5n4)c4ccccc43)ccc2c1`, the GI50 was 5.7 µM in [1]; 2.76 µM in assay [2]; 1.48 µM in [3]; 1.99 µM in assay [4]; more than 100 µM in [5]; 3.13 µM in [6]. The GI50 in assay [7] is 2.97 µM; in assay [8], 2.69 µM; in assay [9], 2.61 µM; in [10], 3.49 µM. Further, the TGI in assay [1] is 23.7 µM; in assay [2], 13.6 µM; in assay [3], 9.87 µM; in assay [4] it was 6.99 µM; in [5], more than 100 µM; in [6], 11.3 µM. The TGI stood at 14.2 µM in [7], 11.9 µM in [8], 6.87 µM in [9] and 13.3 µM in assay [10].
`CCN1C(=O)N(CC)C2C1NN=c1s/c(=C3\C(=O)N(C(C)C)c4ccccc43)c(=O)n12` (centres undefined): the GI50 in [1] was 0.606 µM; in assay [2], 0.357 µM; in assay [3], 0.35 µM; in assay [4], 0.376 µM; in assay [5], 0.3 µM; in assay [6], 0.62 µM. Also, the GI50 in assay [7] was 0.722 µM; in [8], 0.246 µM; in [9] it was 1.24 µM; in assay [10], 1.33 µM. The TGI is more than 100 µM in assay [1]; more than 20.8 µM in [2]; more than 100 µM in assay [3]; more than 100 µM in [4]; 3.14 µM in assay [5]; more than 53.4 µM in assay [6]. The TGI was more than 70.3 µM in assay [7], 0.83 µM in [8], more than 49.7 µM in [9] and more than 69.4 µM in assay [10].
As to `Cc1ccc(C(=O)Nc2ccc(S(=O)(=O)O)c3cc(S(=O)(=O)O)cc(S(=O)(=O)O)c23)cc1NC(=O)c1cccc(N)c1`, the TGI in [1], in assay [2], in [3], in assay [4], in assay [5] and in assay [6] was more than 100 µM throughout. Also, the TGI in assay [7], in assay [8], in assay [9] and in [10] was more than 100 µM each time.
Take `CC12CCC=CC1CCC1C2CCC2(C)C(c3ccc(=O)oc3)CCC12O` (centres undefined): the GI50 is 0.0636 µM in [1]; 0.342 µM in [2]; 0.0516 µM in [3]; 0.154 µM in assay [4]; 0.0475 µM in assay [5]; 0.0999 µM in [6]. For the same compound, the GI50 was 0.041 µM in [7], 0.044 µM in [8], 0.25 µM in assay [9] and 0.0479 µM in assay [10]. The TGI in [1] stood at 0.193 µM; in assay [2], 3.42 µM; in [3], 0.801 µM; in assay [4] it was 0.519 µM; in [5], 0.247 µM; in assay [6], 0.501 µM. Moreover, the TGI was found to be 0.253 µM in assay [7], 0.248 µM in assay [8], 0.828 µM in assay [9] and 0.499 µM in [10].
With `N#CC(C#N)=Cc1ccc(-c2ccc(-c3nc4ccccc4s3)cc2)o1`, the GI50 in assay [1] was 25.7 µM; in assay [2], 18.9 µM; in assay [3], 46 µM; in [4], more than 100 µM; in assay [5] it was 4.16 µM; in assay [6] it was 12.7 µM. Besides, the GI50 in assay [7] is 27.6 µM; in assay [8], 20.7 µM; in assay [9], 63.2 µM; in assay [10], 17.2 µM. Also, the TGI in [1] is more than 100 µM; in assay [2], 45.1 µM; in assay [3], more than 100 µM; in assay [4], more than 100 µM; in [5] it was 14.3 µM; in [6], 33.1 µM. For the same compound, the TGI in [7] is more than 100 µM; in assay [8], 46 µM; in [9] it was more than 100 µM; in assay [10], 36.9 µM.
For the compound `Nc1ncnc2sc(=S)c3c(c12)CCC3`, the GI50 in assay [1] is 18.9 µM; in assay [2], 35 µM; in assay [3], 29.8 µM; in assay [4] it was 42.7 µM; in assay [5], 30.1 µM; in assay [6] it was 37.7 µM. The GI50 in assay [7] is 26.9 µM; in assay [8], 39.6 µM; in assay [9], 81.8 µM; in assay [10], 39.6 µM. The TGI in assay [1] was 58.8 µM; in [2] it was more than 100 µM; in [3], 62.8 µM; in assay [4], more than 100 µM; in assay [5] it was more than 100 µM; in assay [6], more than 100 µM. The TGI in assay [7] is 75.6 µM; in assay [8] it was more than 100 µM; in assay [9], more than 100 µM; in [10], more than 100 µM.
For the compound `O=C(O)CSSCC(=O)O`, the TGI in assay [1], in [2], in assay [3], in [4], in assay [5] and in assay [6] was more than 100 µM each time. Further, the TGI in [7], in [8], in assay [9] and in assay [10] was more than 100 µM throughout.
As to `O=C(Nc1cccc(Cl)c1)Nc1ncc(CCNc2ncnc3ccsc23)s1`, the GI50 in assay [1] is 3.13 µM and 3.14 µM; in assay [2] it was 9.38 µM and > 10 µM; in [3] it was 3.33 µM and 3.03 µM; in assay [4], 2.3 µM and 1.91 µM; in [5], 1.34 µM and 1.6 µM; in assay [6] it was 1.68 µM and 1.22 µM. The GI50 was 5.85 µM and 2.75 µM in [7]; 0.215 µM and 0.593 µM in assay [8]; 2.88 µM and 1.76 µM in assay [9]; 3.46 µM and 4.18 µM in assay [10]. Besides, the TGI in [1] was 19 µM and > 10 µM; in [2], 25.6 µM and > 10 µM; in assay [3] it was 23.1 µM and > 10 µM; in [4] it was 11.6 µM and > 10 µM; in [5], 11.8 µM and > 10 µM; in [6], 9.64 µM and 5.31 µM. Also, the TGI in assay [7] is 29.6 µM and > 10 µM; in assay [8], 16.9 µM and > 10 µM; in [9], 10.8 µM and 6.26 µM; in assay [10], 16.1 µM and > 10 µM.
With `O=c1cc(CNc2cc(F)cc(F)c2)c2ccc(I)cc2[nH]1`, the GI50 in [1] was 2.33 µM; in assay [2] it was more than 64.9 µM; in assay [3], 0.361 µM; in assay [4], 0.52 µM; in assay [5] it was 0.537 µM; in assay [6] it was 2.83 µM. For the same compound, the GI50 in [8] was 0.441 µM; in [9], 1.44 µM; in assay [10] it was more than 100 µM. The TGI in assay [1], in [2], in assay [3], in assay [4], in assay [5] and in assay [6] was more than 100 µM throughout. Also, the TGI in [7], in [8], in assay [9] and in assay [10] was more than 100 µM in each case.
For `COc1cc2c(cc1OC)-c1ccc3cc4c(cc3c1N(CCN1CCCC1)C2)OCO4`, the GI50 is 0.953 µM in assay [1]; 1.09 µM in assay [2]; 0.313 µM in assay [3]; 0.574 µM in [4]; 7 µM in assay [5]; 0.404 µM in [6]. Further, the GI50 in assay [7] was 0.36 µM; in [8], 0.441 µM; in assay [9], 7.61 µM; in [10], 3.46 µM. Moreover, the TGI came out at 7.31 µM in [1]; 2.43 µM in assay [2]; 1.47 µM in assay [3]; 1.89 µM in [4]; 53.8 µM in assay [5]; 2.06 µM in assay [6]. The TGI in assay [7] is 2 µM; in [8] it was 3.1 µM; in assay [9], 20.1 µM; in assay [10] it was 12.5 µM.
For `C=C1C(=O)O[C@@H]2C1CC(=O)C(C)CC/C=C(\C)CCC[C@H](C)[C@H]2OC(C)=O` (some centres undefined), the GI50 in [1] is 16.3 µM; in [2], 15.6 µM; in assay [3] it was 5.28 µM; in [4], 4.24 µM; in [5] it was 15.3 µM; in assay [6], 17.9 µM. Moreover, the GI50 is 20.5 µM in assay [7], 19.8 µM in assay [8], 17.6 µM in [9] and 1.79 µM in assay [10]. Moreover, the TGI is 31.5 µM in [1]; 29.9 µM in assay [2]; more than 100 µM in [3]; 16 µM in [4]; 40.9 µM in [5]; 41.1 µM in assay [6]. Moreover, the TGI in assay [7] is 41.3 µM; in assay [8], 36.2 µM; in assay [9] it was 45.5 µM; in assay [10], 8.43 µM.
On to `Fc1ccc(-c2nc3n(c2-c2ccncc2)CCS3)cc1`, for which the GI50 in assay [1], in assay [2], in assay [3], in [4], in assay [5] and in assay [6] was more than 25 µM in each case. Besides, the GI50 in assay [7], in assay [8], in [9] and in [10] was more than 25 µM each time. The TGI in assay [1], in assay [2], in [3], in assay [4], in assay [5] and in assay [6] was more than 25 µM each time. Besides, the TGI in assay [7], in assay [8], in assay [9] and in [10] was more than 25 µM each time.
Regarding `Nc1ncnc2c1ccn2C1OC2COP(=O)(O)OC2C1O` (centres undefined), the TGI in assay [1] is 57.7 µM; in [2], 9.45 µM; in assay [3], 11.7 µM; in assay [4], 1.54 µM; in assay [5], more than 31.8 µM; in assay [6], 7.94 µM. The TGI in [7] turned out to be 8.06 µM; in assay [8], 29.5 µM; in assay [9], 5.52 µM; in assay [10], 4.8 µM.
As to `CC(C)(C(=O)NN)c1ccccc1`, the TGI in assay [1], in assay [2], in [3], in [4], in assay [5] and in [6] was more than 100 µM throughout. Besides, the TGI in assay [7], in assay [8], in assay [9] and in assay [10] was more than 100 µM throughout.
